Results taken from BindingDB's records for PubMed 10087018 (University of Rochester, 1999).

Tests used:
Mu-type opioid receptor = Mu-type opioid receptor (Bos taurus, UniProt P79350)
Opioid receptor delta 1 = Opioid receptor delta 1 (Bos taurus, UniProt F1N083)
Opioid receptor delta 1, sequence (F1N083 whole entry): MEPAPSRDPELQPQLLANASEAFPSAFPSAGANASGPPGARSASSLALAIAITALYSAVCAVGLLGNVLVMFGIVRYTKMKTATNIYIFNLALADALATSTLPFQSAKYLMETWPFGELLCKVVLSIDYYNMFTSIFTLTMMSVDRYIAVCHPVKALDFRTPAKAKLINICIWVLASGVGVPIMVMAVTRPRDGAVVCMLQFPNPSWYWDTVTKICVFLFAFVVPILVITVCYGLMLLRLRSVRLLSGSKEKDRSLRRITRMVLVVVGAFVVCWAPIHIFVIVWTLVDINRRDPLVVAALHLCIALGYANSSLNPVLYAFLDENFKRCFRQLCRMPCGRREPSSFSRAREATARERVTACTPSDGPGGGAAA

Mu-type opioid receptor, sequence (P79350 whole entry): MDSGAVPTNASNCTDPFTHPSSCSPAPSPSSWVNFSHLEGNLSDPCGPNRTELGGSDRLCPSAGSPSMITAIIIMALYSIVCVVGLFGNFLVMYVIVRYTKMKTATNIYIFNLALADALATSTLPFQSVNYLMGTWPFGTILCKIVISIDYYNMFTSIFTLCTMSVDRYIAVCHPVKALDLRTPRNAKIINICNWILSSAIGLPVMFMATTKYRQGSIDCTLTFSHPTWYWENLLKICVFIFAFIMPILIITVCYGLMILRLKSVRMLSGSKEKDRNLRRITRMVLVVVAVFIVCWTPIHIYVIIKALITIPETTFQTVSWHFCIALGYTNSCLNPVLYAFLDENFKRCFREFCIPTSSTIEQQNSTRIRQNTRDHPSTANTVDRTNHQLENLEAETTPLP

Q: How did the Ki (Mu-type opioid receptor) turn out when `COc1ccc2c3c1O[C@H]1C(=O)CCC4(NC(=O)/C=C\c5ccc([N+](=O)[O-])cc5)C(C2)N(C)CCC314` (stereo partly specified) [CACO] was run?
A: 0.46 nM

Q: How did the Ki (Opioid receptor delta 1) turn out when `COc1ccc2c3c1O[C@H]1C(=O)CCC4(NC(=O)/C=C\c5ccc(Cl)cc5)C(C2)N(C)CCC314` (stereo partly specified) [CAM] was run?
A: 0.75 nM

Q: And the Ki (Mu-type opioid receptor)?
A: 0.12 nM

Q: With `COc1ccc2c3c1O[C@H]1C(=O)CCC4(NC(=O)/C=C\c5ccc(Cl)cc5)C(C2)N(CC2CC2)CCC314` (stereo partly specified) [MC-CAM] as the molecule, how does the Ki (Opioid receptor delta 1) read?
A: 12 nM

Q: And the Ki (Mu-type opioid receptor)?
A: 1.4 nM

Q: How did the Ki (Opioid receptor delta 1) turn out when `COc1ccc2c3c1O[C@H]1C(=O)CCC4(NC(=O)/C=C\c5ccc([N+](=O)[O-])cc5)C(C2)N(CC2CC2)CCC314` (stereo partly specified) [N-CPM-CACO] was run?
A: 16 nM
